Source: patent EP0139358B1, “N6-substituted diarylalkyl adenosines, processes for their production and pharmaceutical compositions comprising the same” (priority 1983, dated 1985)
Where two headings read alike, the source gives them in different places.

Assays:
[1] = tested on: rat heart; test: Coronary blood flow (PCS2A): isolated perfused heart; conditions: isolated perfused rat heart
Experimental: CORONARY BLOOD FLOW (PCS2A)
Male rats (400-600 gms) are pretreated with Na haparin 2000 units and anesthetized with Na pentobarbital (50 mg/kg) administered intraperitoneally. Once anesthetized, the rat heart is rapidly excised, the ascending aorta fitted to the aortic perfusion cannula, and […] with a ligature. The coronary arteries are perfused initially at a rate of about 15 ml/min for two to three minutes, afterwhich they are perfused at constant pressure of 70 mm Hg and temperature of 37°C. The electrocardiogram (ECG) is recorded using two platinum electrodes positioned at the base and apex of the left ventricle. A second heart is excised, cannulated, and perfused by the same method outlined above. Both hearts are tested in parallel. The standard physiological salt solution (PSS) is a modified Krebs-Hanseleit bicarbonate buffer of the following composition in mM concentration: NaCI, 127; NaHC03, 25; dextrose, 5.5; Na Pyruvate, 2.0: KCI, 4.7; MgS04, 1.1; KH 2P04, 1.2; CaCl2·2H2O, 2.5; CaNa2 EDTA, 0.05.
A 30-minute stabilization period is observed before starting the test protocol.
The microprocessor control system is a servo mechanism which permits coronary perfusion pressure (CPP) and drug concentration to be maintained constant independent of changes in coronary flow. The level at which CPP and drug concentration are maintained can be changed by commands communicated through the microprocessor keyboard. Dose-response curves are carried out by perfusing concentrated drug solution (DC) at rates proportional to total coronary flow (CFT). Drug concentrations are increased by proportionate increases in the rate of DC infusion over CFT via the microprocessor keyboard. The proportional flow rates for DC:CFT is about .0002:1 at the low end and .02: at the high end of the dose-response curve. Dose-response curves encompassing at least two log doses are carried out by preparing two DCs with a concentration difference of 1:100. Following the first dose range of two log doses, the DC are switched, proportional pumping rate adjusted, and the dose-response curve continued for another two log doses. The standard dose-response curve is carried out in one-half log dose increments starting at a subthreshold dose and ending at a dose which produces near maximal response in activity. Standard reference compounds are tested over the range of 10-^9 to 10-^6M.
Measurements are for heart rate (HR) and coronary flow (CF). Units are: HR, beats/minute (bpm) and CF, milliliters/minute (ml/min). HR is calculated from the ECG strip chart recording and CF is calculated by recording analog outputs from pumps 1 and 2. Outputs from pump #1 = CFT and the output from pump #2 = CF for heart B (CFg). CF for heart A (CFA) is calculated (CFT - CFB = CFA).
Using the above technique, the effects of the compound of Examples 1 and 2 are as follows: […]

[2] = tested on: Swiss-Webster male mice; test: Mouse Activity and Screen Test (MAST): inhibition of spontaneous locomotion (LI); type: in vivo; conditions: Mus musculus, ip; read-out: MAST LI LAD
Experimental: (§1) Treatments are administered intraperitoneally one hour prior to testing. […] Compounds are dissolved or suspended in 0.2% Methocel. Control animals are injected with Methocel.
Immediately following the screen test, the final phase of testing is initiated by placing each group of three mice in one actophotometer (Life Sciences, 22, 1067-1076, 1978). The actophotometer consists of a cylindrical chamber whose center is occupied by another cylinder which contains the illumination for six photocells located on the perimeter of the chamber. Six light-beam interruptions equal one count. Locomotor activity is recorded by computer at ten minute intervals for 60 minutes. […]

[3] = tested on: Swiss-Webster male mice; test: Mouse Activity and Screen Test (MAST): screen test (ST); type: in vivo; conditions: lowest dose at which an A rating (60-100%) is achieved, screen test; intraperitoneally
Experimental: as §1
The compounds are identified in the Examples.

[4] = tested on: conscious rat; test: Antihypertensive evaluation (AHP3): aortic blood pressure and heart rate; type: in vivo; conditions: lowest dose tested at which a >10% reduction in blood pressure for four consecutive hours is achieved; conscious rat; read-out: AHP3 BP LAD
Text: […] EVALUATION (AHP3)
This test procedure is described in the following paragraphs.
A Method for the Direct Monitoring of Aortic Blood Pressure and Heart Rate from Conscious Rats
The continuous monitoring of pulsatile blood pressure (BP) from unrestrained conscious rats surgically equipped with polyethylene cannulas was accomplished by means of a computer assisted data capture scheme (CADCS). The absic elements of the methodology are the cannulation procedure and the CADCS.
Cannulation Procedure: Rats were anesthetized with Telazol (1:1 tiletamine HCI and zolazepam HCI); 20-40 mg/kg IM and the descending aorta exposed via a midline incision. Cannulas fabricated from polyethylene tubing were inserted into the aorta via an undersized puncture hole below the renal arteries. The puncture hole was made by a 23 G disposable needle with a section of the aorta clamped off above and below the puncture site. The cannulas, consisting of a PE100 (0.86 mm ID) body and a PE50 (0.58 mm ID) tip, were attached to a trocar, inserted through the psoas muscle, and passed subcutaneously along the midline of the back and externalized between the ears. The cannulas were anchored to the psoas muscle and between the scalulae (3-0 green braided suture). The midline incision was closed in two steps (muscle first, skin second) using continuous over-and over sutures (4-0 chronic). Each rat was then given penicillin 30,000 units subcutaneously (Penicillin G Procaine Sterile Suspension).
The rats were fitted with a harness-spring-swivel assembly designed to protect the cannula and to provide the rat relative freedom of movement. The harnesses were fabricated from nylon hook and loop tape cemented to a metal plate to which spring wires (18-8 stainless steel), were attached to brass swivels. Each polyethylene cannula was channeled through a spring and connected through a swivel to a pressure transducer (Model P23Gb; Statham Instruments; Hato Rey, Puerto Rico) and an infusion pump (Sage model 234-7; Orion Research, Cambridge, Ma) by means of PE100 tubing. While on test, each rat received a continuous slow infusion of heparinized saline solution (approximately 400 I or 40 units of heparin per 24 hour period) to prevent clot formation. Additional "flushes" of the cannula with heparinized saline were carried out when the aortic pulse pressure (systolic minus diastolic) was less than 25 mm Hg.
CADCS: The pulsatile blood pressure and heart rate of each of 32 rats was monitored every minute by means of two in-laboratory microcomputers communicating directly with a data concentrator computer. The data were first stored on the data concentrator disk and then transferred to a magnetic tape for analysis and report generation by the main research computer. The overall scheme involved modulating the primary signal from the pressure transducer, generating the primary data set of the one-minute values for systolic, diastolic, and mean blood pressures and heart rate by the in-lab microcomputer and the storage, analysis, and report generation by the main research computer.
The transducers were connected to analog signal conditioning modules. The modules providing a regulated excitation voltage for the transducers, amplification as required to interface the microprocessors and an active low pass filter to compensate for the pressure wave form distortion produced by the flexible, fluid filled, narrow cannula.
The microcomputers (one for each of two groups of 16 rats) were connected to the input components through the module interface units, an analog-to-digital converter for the pressure wave form signal and the digital inputs for the dose and event marker switches. The microcomputer controlled the sequential acquisition of data from the modular interface units through an internal synchronous time-of-day clock/ time base generator. […]

[5] = tested on: Long-Evans rats or squirrel-monkeys; test: Antipsychotic lever-push shock avoidance protocol (SIDR); type: in vivo; conditions: Rattus norvegicus; shock avoidance lever pushing; read-out: SIDR ED50
Experimental: Representative compounds of the invention (identified in the Examples) were also tested for antipsychotic activity according to the following protocol (SIDR). […] Mature male Long-Evans rats or squirrel-monkeys are conditioned to push a lever in order to avoid a painful electric footshock. If the animal fails to push the lever, he receives a shock every ten seconds until the lever is pushed. Shocks can be terminated by pushing the lever. Thereafter, as long as the lever is pushed at least once every 20 seconds, there will be no shock. Each animal acts as its own control; one weekly session is used to establish baseline behavior and another session later in the week is used as a drug session. Once patterns of avoidance are established, the effects of standard and unknown compounds are studied. All events are electronically programmed and the response to these events counted or used as feedback to the program.

[6] = tested on: male Swiss-Webster mice; test: Analgesic evaluation: antiwrithing (AW) test, acetic acid; type: in vivo; conditions: Mus musculus, sc; subcutaneously, 20 minutes before acetic acid; dose to suppress writhing by 50%; read-out: AW ED50
Experimental: The antiwrithing (AW) test provides preliminary assessment of compounds with potential analgesic activity. The test is performed in male Swiss-Webster mice. Compounds are administered subcutaneously in aqueous 0.2% methylcellulose or other appropriate vehicles in volumes of 10 ml/kg. Dosages represent activity moiety.
Acetic acid (0.6%, 10 ml/kg) is injected intraperitroneally 20 minutes after administration of the adenosine agonist. Writhing movements are counted for five minutes starting seven minutes after the acetic acid injection. Writhing is defined as abdominal constriction and stretching of the body and hind legs with concave arching of the back. […] EDso values are calculated by nonlinear regression analysis.

[7] = coronary flow, read-out: PCS2A CF ED50
[8] = heart rate, read-out: PCS2A HR ED50

| EC50 [1, 7] [nM] | MAST ST LAD [3] [mg/kg] | SMILES | EC50 [1, 8] [nM] | minimal effective dose [2] [mg/kg] | minimal effective dose [4] [mg/kg] | ED50 [5] [mg/kg] | ED50 [6] [mg/kg] |
| --- | --- | --- | --- | --- | --- | --- | --- |
| < 100 | >100 | CC(CNc1ncnc2c1ncn2[C@@H]1O[C@H](CO)[C@@H](O)[C@H]1O)(c1ccccc1)c1ccccc1 [Example 8, N^6-(2,2-Diphenylpropyl)adenosine] | 3000 | 10 | 10 | 5.6 | 10.6 |
| 30 | >100 | OC[C@H]1O[C@@H](n2cnc3c(NCC(c4ccccc4)c4ccc(Cl)cc4)ncnc32)[C@H](O)[C@@H]1O (stereo partly shown) [Example 15, N^6-(2-(4-Chlorophenyl)-2-phenylethyl)adenosine] | > 3000 | 10 | 10 | 12.7 |  |
| 1000 | >100 | CC(=O)OC[C@H]1O[C@@H](n2cnc3c(NCC(c4ccccc4)c4ccccc4)ncnc32)[C@H](OC(C)=O)[C@@H]1OC(C)=O [Example 25, 2',3',5'-Tri-O-acetyl-N^6-(2,2-diphenylethyl)adenosine] | 2200 | 3 | 10 | 11.3 |  |
